Data published in patent US4159373A, “7-Acyl-3-(sulfonic acid and sulfamoyl substituted tetrazolyl thiomethyl) cephalosporins” (SmithKline Corporation, priority 1978, dated 1979).
≈ marks a conversion by molar mass, not a printed value. Like-named read-outs stand apart in the source and are kept apart here.

Legend:
shigella HH 117 = assay: MIC in vitro; format: cell-based; conditions: HH117; Table 1; shigella HH 117; read-out: MIC in vitro
Experimental: (§1) The compounds of Formula I have exceptional antibacterial activity against both Gram-positive and Gram-negative organisms. Minimum inhibitory concentrations (MIC's) ranged from 0.2 to <200 μg./ml. in in vitro testing.

E. coli SK 12140 = assay: MIC in vitro; format: cell-based; conditions: Escherichia coli, E. coli SK 12140
Experimental: as §1

E. coli HH 33779 = assay: MIC in vitro; format: cell-based; conditions: Escherichia coli
Experimental: as §1

Proteus morgani 179 = assay: MIC in vitro; format: cell-based; conditions: Table 1, read-out: MIC in vitro
Experimental: as §1

Strep. Faecalis HH 34358 = assay: MIC in vitro; format: cell-based; conditions: Table 1, Strep. Faecalis HH 34358; for MIC: Enterococcus faecalis, read-out: MIC in vitro
Experimental: as §1

Salmonella ATCC 12176 = assay: MIC in vitro; format: cell-based; conditions: Salmonella, ATCC12176, Table 1, read-out: MIC in vitro
Experimental: as §1

S. aureus SK 23390 = assay: MIC in vitro; format: cell-based; conditions: Staphylococcus aureus
Experimental: as §1

S. aureus HH 127 = assay: MIC in vitro; format: cell-based; conditions: Staphylococcus aureus, HH127; Table 1; S. aureus HH 127; read-out: MIC in vitro
Experimental: as §1

Kleb. pneumo. SK 4200 = assay: MIC in vitro; format: cell-based, Kleb. pneumoniae; conditions: for MIC: Klebsiella pneumoniae, read-out: MIC in vitro
Experimental: as §1

Kleb. pneumo. SK 1200 = assay: MIC in vitro; format: cell-based, Kleb. pneumoniae; conditions: Klebsiella pneumoniae, read-out: MIC in vitro
Experimental: as §1

Entero. cloacae HH 31254 = assay: MIC in vitro; format: cell-based; conditions: Enterobacter cloacae
Kleb. pneumo. 4200 = assay: In vivo mouse protection, Kleb. pneumo. 4200; conditions: read-out: ED50 in vivo
Serra. marc ATCC 13880 = assay: MIC in vitro; format: cell-based, Serratia marcescens; conditions: for MIC: Serratia marcescens
Experimental: as §1

[1] = test system: Entero. aerog. ATCC 13048; assay: MIC in vitro; format: cell-based, Enterobacter aerogenes; conditions: Klebsiella aerogenes
Experimental: as §1

Psuedo. sp. HH 63 = assay: MIC in vitro; format: cell-based, Pseudo. aeruginosa; conditions: Pseudomonas aeruginosa; Table 1; Psuedo. sp. HH 63; read-out: MIC in vitro
Experimental: as §1

E. coli 12140 = assay: In vivo mouse protection, E. coli 12140; conditions: Table 2, E. coli 12140, read-out: ED50 in vivo
S. villaluz = assay: MIC in vitro; format: cell-based; conditions: Table 1
Experimental: as §1

[2] = SK12140, Table 1, read-out: MIC in vitro
[3] = HH33779, Table 1, E. coli HH 33779, read-out: MIC in vitro
[4] = SK23390, Table 1, S. aureus SK 23390, read-out: MIC in vitro
[5] = HH31254, read-out: MIC in vitro, Table 1
[6] = po, Table 2, Kleb. pneumo. 4200, p.o.
[7] = sc, Table 2, Kleb. pneumo. 4200, s.c.
[8] = ATCC13880, read-out: MIC in vitro
[9] = ATCC13048, Table 1, Entero. aerog. ATCC 13048, read-out: MIC in vitro
[10] = Escherichia coli, 12140, po, p.o.
[11] = Escherichia coli, 12140, sc, s.c.
[12] = SK12140, read-out: MIC in vitro, Table 1
[13] = ATCC13880, Table 1, Serra. marc ATCC 13880, read-out: MIC in vitro
[14] = HH31254, Table 1, read-out: MIC in vitro

Compound	MIC (shigella HH 117) [µg/mL]	MIC (E. coli SK 12140; [2]) [µg/mL]	MIC (E. coli HH 33779; [3]) [µg/mL]	MIC (Proteus morgani 179) [µg/mL]	MIC (Strep. Faecalis HH 34358) [µg/mL]	MIC (Salmonella ATCC 12176) [µg/mL]	MIC (S. aureus SK 23390; [4]) [µg/mL]	MIC (S. aureus HH 127) [µg/mL]	MIC (Kleb. pneumo. SK 4200; Table 1, Kleb. pneumo. SK 4200) [µg/mL]	MIC (Kleb. pneumo. SK 1200; Table 1, Kleb. pneumo. SK 1200) [µg/mL]	MIC (Entero. cloacae HH 31254; [5]) [µg/mL]	ED50 (Kleb. pneumo. 4200; [6]) [mg/kg]	ED50 (Kleb. pneumo. 4200; [7]) [mg/kg]	MIC (Serra. marc ATCC 13880; [8]) [µg/mL]	MIC [1, 9] [µg/mL]	MIC (Psuedo. sp. HH 63) [µg/mL]	ED50 (E. coli 12140; [10]) [mg/kg]	ED50 (E. coli 12140; [11]) [mg/kg]	MIC (E. coli SK 12140; [12]) [µg/mL]	MIC (Serra. marc ATCC 13880; [13]) [µg/mL]	also measured
NS(=O)(=O)CCn1nnnc1SCC1=C(C(=O)O)N2C(=O)C(NC(=O)[C@H](O)c3ccccc3)[C@H]2SC1 (stereo partly drawn) [III, 7-D-mandelamido-3-[1-(2-sulfamoylethyl)tetrazol-5-ylthiomethyl]-3-cephem-4-carboxylic acid]	0.2 (≈ 0.36 µM)	0.8 (≈ 1.44 µM)	1.6 (≈ 2.88 µM)	3.1 (≈ 5.58 µM)	12.5 (≈ 22.5 µM)	0.4 (≈ 0.72 µM)	0.2 (≈ 0.36 µM)	1.6 (≈ 2.88 µM)	1.6 (≈ 2.88 µM)	0.8 (≈ 1.44 µM)	0.8 (≈ 1.44 µM)	21.5	0.68	6.3 (≈ 11.3 µM)	3.1 (≈ 5.58 µM)	> 200	25	0.7	–	–	–
NS(=O)(=O)CCn1nnnc1SCC1=C(C(=O)O)N2C(=O)C(NC(=O)CSC(F)(F)F)C2SC1 (stereo not shown) [IX, 7-Trifluoromethylthioacetamido-3-[1-(2-sulfamoylethyl)tetrazol-5-ylthiomethyl]-3-cephem-4-carboxylic acid]	0.2 (≈ 0.355 µM)	–	1.6 (≈ 2.84 µM)	200 (≈ 355 µM)	12.5 (≈ 22.2 µM)	0.4 (≈ 0.71 µM)	–	0.4 (≈ 0.71 µM)	–	0.4 (≈ 0.71 µM)	0.8 (≈ 1.42 µM)	–	–	–	1.6 (≈ 2.84 µM)	> 200	44	1.56	0.8 (≈ 1.42 µM)	100 (≈ 177 µM)	MIC (S. villaluz): 6.3 µg/mL (≈ 11.2 µM); MIC (S. aureus SK 23390; SK23390, read-out: MIC in vitro): 0.2 µg/mL (≈ 0.355 µM); MIC (Kleb. pneumo. SK 4200): 0.8 µg/mL (≈ 1.42 µM)
O=C(O)C1=C(CSc2nnnn2CCS(=O)(=O)O)CS[C@@H]2C(NC(=O)[C@H](O)c3ccccc3)C(=O)N12 (stereo partly drawn) [II, 7-D-Mandelamido-3-[1-(2-sulfoethyl)tetrazol-5-ylthiomethyl]-3-cephem-4-carboxylic acid]	0.4 (≈ 0.719 µM)	0.8 (≈ 1.44 µM)	1.6 (≈ 2.87 µM)	6.3 (≈ 11.3 µM)	50 (≈ 89.8 µM)	0.8 (≈ 1.44 µM)	0.8 (≈ 1.44 µM)	1.6 (≈ 2.87 µM)	0.8 (≈ 1.44 µM)	–	–	18.6	0.39	–	6.3 (≈ 11.3 µM)	> 200	35	0.58	–	25 (≈ 44.9 µM)	MIC (Kleb. pneumo. SK 1200): 0.4 µg/mL (≈ 0.719 µM); MIC (Entero. cloacae HH 31254; [14]): 3.1 µg/mL (≈ 5.57 µM)
O=C(Cc1cccs1)NC1C(=O)N2C(C(=O)O)=C(CSc3nnnn3CS(=O)(=O)O)CS[C@H]12 (stereo partly shown) [V, 7-(2-thienylacetamido)-3-(1-sulfomethyltetrazol-5-ylthiomethyl)-3-cephem-4-carboxylic acid]	1.6 (≈ 3 µM)	1.6 (≈ 3 µM)	6.3 (≈ 11.8 µM)	> 200	25 (≈ 46.9 µM)	0.8 (≈ 1.5 µM)	0.4 (≈ 0.751 µM)	0.8 (≈ 1.5 µM)	1.6 (≈ 3 µM)	–	–	–	0.26	–	12.5 (≈ 23.5 µM)	> 200	> 50	4	–	100 (≈ 188 µM)	MIC in vitro (Strep. Faecalis HH 34358): 50 µg/mL (≈ 93.9 µM); MIC in vitro (Kleb. pneumo. SK 4200; Table 1, Kleb. pneumo. SK 4200): 0.8 µg/mL (≈ 1.5 µM); MIC (Kleb. pneumo. SK 1200): 0.4 µg/mL (≈ 0.751 µM); MIC (Entero. cloacae HH 31254; [14]): 1.6 µg/mL (≈ 3 µM); MIC in vitro (Serra. marc ATCC 13880; Table 1, Serra. marc ATCC 13880): 200 µg/mL (≈ 376 µM)
NCc1ccccc1CC(=O)NC1C(=O)N2C(C(=O)O)=C(CSc3nnnn3CS(=O)(=O)O)CS[C@H]12 (stereo partly shown) [XI, 7-(o-aminomethylphenylacetamido)-3-(1-sulfomethyltetrazol-5-ylthiomethyl)-3-cephem-4-carboxylic acid]	–	–	–	50 (≈ 90 µM)	25 (≈ 45 µM)	≤ 0.1	1.6 (≈ 2.88 µM)	1.6 (≈ 2.88 µM)	≤ 0.1	≤ 0.1	0.8 (≈ 1.44 µM)	–	–	6.3 (≈ 11.3 µM)	–	> 200	–	21.5	0.2 (≈ 0.36 µM)	–	MIC (E. coli HH 33779; HH33779, read-out: MIC in vitro): 0.4 µg/mL (≈ 0.72 µM); MIC (S. villaluz): 200 µg/mL (≈ 360 µM); MIC ([1]; ATCC13048, read-out: MIC in vitro): 0.8 µg/mL (≈ 1.44 µM)
